Source: patent publication US12138251B2, “Fibrosis drug” (SCIENCE FARM LTD., priority 2019, dated 2024)

Assays:
[1] = test system: InMyoFib human colon myofibroblast cell line; assay: Immunoblot study of HPH-15 on TGF-β1-stimulated InMyoFib cells; type: cell-based; settings: InMyoFib cells stimulated with TGF-β1 (5 ng/ml) and HPH-15 for 24 hours
Source text: An InMyoFib human colon myofibroblast cell line, which reproduces an inflammatory bowel disease, was used. The culture condition was as follows: culture medium SmBM with 5% fetal bovine serum (FBS), antibiotics, and growth factors (insulin, hFGF-B, hEGF, FBS, and gentamicin/amphotericin-B). Cells at 10 to 17 passages were used.

[2] = test system: bleomycin (BLM)-induced scleroderma mouse model
Description: An eight-to-ten-week-old female C57BL/6 mouse was injected subcutaneously with 150 μl of bleomycin (dissolved in physiological saline at 1 mg/ml) or with 150 μl of physiological saline as a control on the shaved back once a day for 6 weeks on alternate days. […] For each group, the body weights of the mice before the start of the test and at the time of the tissue collection (6 weeks later) were measured and compared. A Student's t-test was used for statistics. Four mice are used for each group. […] Mouse skin tissue for HE staining was collected with a scalpel and a knife. The skin tissue was fixed with 4% paraformaldehyde, and HE-stained slides were prepared from the paraffin block. A representative stained image of each group was shown (FIG. 4b). • c. For the dermal thickness, the distance between the epidermis-dermis boundary and the subcutaneous fatty tissue was measured using HE staining. For statistics, a parametric multiple comparison test by the Tukey-Kramer method was performed. Four mice were used for each group. […] In order to compare the amounts of collagen in the skin tissues, the skins were collected using a 4 mm Derma punch centering on the bleomycin-injected site on the back skin of the mice. For the measurement of the amount of collagen, Sircol Soluble Collagen Assay Kit (#S1000, Funakoshi Co., Ltd.) was used. The amount (μg) of collagen in the skin tissue was graphed using four mice for each group. For statistics, the Tukey-Kramer method was used.

Human dermal fibroblasts = assay: Immunoblot study of HPH-15 on TGF-β-treated human dermal fibroblasts; type: cell-based; settings: after 2 ng/mL TGF-β for 24 hours, FIG. 3
Source text: Collagen was observed by immunoblot.

## CC(C)(C)SCCNC(=S)c1cccc(C(=S)NCCSC(C)(C)C)n1 [HPH-15]
[1]; FIG. 1
  amount of phosphorylated Smad (P-Smad): reduced by the HPH-15 treatment in a dose-dependent manner
[1]; FIG. 2
  amount of collagen I: reduced by the HPH-15 treatment in a dose-dependent manner
[2]; HPH-15 dose of 50 mg/kg/day or more, oral, 4 weeks, HE staining, FIGS. 4b, c
  dermal thickness increased by bleomycin: significantly reduced
[2]; each dose 50, 100, 200, 300 mg/kg/day oral for 4 weeks, 6 weeks after the start of the test
  systemic condition of the mice: kept well
[2]; each dose 50, 100, 200, 300 mg/kg/day oral for 4 weeks, 6 weeks after the start of the test, FIG. 4a
  body weight at skin collection compared with before the start of the test: no significant decrease in body weight
Human dermal fibroblasts; 5 μM HPH-15, 48 hours
  expression of collagen: suppressed
Human dermal fibroblasts; 10 μM HPH-15, 48 hours
  expression of collagen: suppressed
